Earlier results, collected in patent publication US9851354B2, “Methods of treating fragile X syndrome and related disorders” (Alcobra Ltd., priority 2013, dated 2017).

Conditions: cited from earlier work
[1] = randomized placebo-controlled trial in autistic children (McCracken 2002)

Cc1nc2n(c(=O)c1CCN1CCC(c3noc4cc(F)ccc34)CC1)CCCC2 [risperidone]
social isolation and communication (autistic children): not improved | adverse events [1]: weight gain, increased appetite, fatigue, drowsiness, dizziness, and drooling | irritability subscale of the Aberrant Behavior Checklist and Clinical Global Impressions-Improvement [1]: significant improvement | adverse side effects associated with use (use in autistic children): extrapyramidal symptoms and dyskinesias
